Key:
AGTR1 [1] = molecular target: T1, AGTR1 (Homo sapiens, UniProt P30556); test: DiscoveRx β-arrestin2 recruitment assay (enzyme complementation, Pathunter CHO-K1 AGTR1 β-arrestin cell line); assay type: cell-based; conditions: DiscoveRx β-arrestin2 recruitment; for DiscoveRx β-arrestin2 Ymax (%): maximal response
T1 construct: host or cells: Pathunter CHO-K1 AGTR1 β-arrestin cell line (CHO-K1)
T1 sequence (P30556 1-359): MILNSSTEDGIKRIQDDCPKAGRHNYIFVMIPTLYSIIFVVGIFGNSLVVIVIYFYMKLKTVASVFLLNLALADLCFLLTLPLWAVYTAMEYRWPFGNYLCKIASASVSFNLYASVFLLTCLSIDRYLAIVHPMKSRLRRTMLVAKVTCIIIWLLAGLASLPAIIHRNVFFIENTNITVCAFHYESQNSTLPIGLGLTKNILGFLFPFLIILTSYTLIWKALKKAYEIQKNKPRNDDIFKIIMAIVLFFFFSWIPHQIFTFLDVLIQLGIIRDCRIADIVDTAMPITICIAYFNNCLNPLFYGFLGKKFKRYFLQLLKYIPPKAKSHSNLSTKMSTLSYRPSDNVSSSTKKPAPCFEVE
Summary of the method: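 CHO-K1 cells expressing AGTR1 with β-arrestin2 enzyme-complementation reporter, plated 14-16 h ahead in 1% serum medium, then exposed to compounds for 90 min at 37° C. Chemiluminescence read after 1 h detection. EC50 (agonist) or IC50 (antagonist) from 4-parameter logistic fit; activity as percentage of All maximal effect.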

AGTR1 [2] = molecular target: T1, AGTR1; test: DiscoveRx IP1 accumulation assay (HTRF), agonist mode, Pathunter CHO-K1 AGTR1 β-arrestin cell line; assay type: cell-based; conditions: for EC50: read-out: IP-1 EC50
Summary of the method: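 Agonist mode in CHO-K1 AGTR1 β-arrestin cells plated 14-16 h before; compounds at varying concentrations for 90 min at 37° C, IP1 accumulation read by HTRF (D2-conjugate and anti-IP1 cryptate, 20 min room temperature). EC50 from 4-parameter logistic fit; activity given as percentage of maximal AII effect.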

hAT1R [3] = molecular target: T2, hAT1R (Homo sapiens, UniProt P30556); test: BRET β-arrestin2 biosensor assay, higher receptor expression (hAT1R 5 ng/well), HEK293 cells; assay type: cell-based; conditions: for EC50: High AT1R Expression
T2 sequence (P30556 1-359): T1 sequence (P30556 1-359)

hAT1R [4] = molecular target: T2, hAT1R; test: cell-based; conditions: Low AT1R Expression; for EC50: read-out: BRET β-Arrestin2 Low AT1R Expression EC50

Compound	EC50 (AGTR1 [1]) [nM]	DiscoveRx β-arrestin2 Ymax (%) (AGTR1 [1])	IP-1 Ymax (%) (AGTR1 [2])	EC50 (AGTR1 [2]) [nM]	BRET β-Arrestin2 High AT1R Expression Ymax (%) (hAT1R [3])	EC50 (hAT1R [3]) [nM]	EC50 (hAT1R [4]) [nM]	BRET β-Arrestin2 Low AT1R Expression Ymax (%) (hAT1R [4])
CCCCC1=NC2(CCCC2)C(=O)N1Cc1ccc(-c2cc(-c3cncc(C)c3)ccc2-c2nn[nH]n2)cc1 [Example 129]	33.5	12.9	2.0	119	40.7	240	> 10000	–
CCCCC1=NC2(CCCC2)C(=O)N1Cc1ccc(-c2cc(-c3cccc(C)n3)ccc2-c2nn[nH]n2)cc1 [Example 138]	13.4	27.9	6.3	54.1	73.2	56.9	> 10000	–
CCc1nc2c(C)cc(C)nc2n1Cc1ccc(-c2cc(-c3ccccc3C(C)C)ccc2-c2nn[nH]n2)cc1 [Example 3]	21.2	22.9	29.9	45600	79.6	14.9	24.2	30.6
CCc1nc2c(C)cc(C)nc2n1Cc1ccc(-c2cc(-c3ccccc3OC(F)(F)F)ccc2-c2nn[nH]n2)cc1 [Example 1]	15.5	44.1	18.7	20.7	86.9	7.2	29.5	61.8
CCc1nc2c(C)cc(C)nc2n1Cc1ccc(-c2cc(-c3ccccc3)ccc2C(=O)O)cc1 [Example 31, 4″-((2-ethyl-5,7-dimethyl-3H-imidazo[4,5-b]pyridin-3-yl)methyl)-[1,1′:3′,1″-terphenyl]-4′-carboxylic acid]	33.9	55.1	12.3	234	85.5	58.2	84.7	42.4
CCCCC1=NC2(CCOC2)C(=O)N1Cc1ccc(-c2cc(-c3ccccc3F)ccc2-c2nnn[nH]2)cc1 (single isomer, unassigned) [Example 149]	38.9	55.2	7.5	143	85.7	24.1	82.7	42.1
CCc1nc2c(C)cc(C)nc2n1Cc1ccc(-c2cc(-c3cccc(OC)n3)ccc2-c2nn[nH]n2)cc1 [Example 29]	8.6	29.8	12.1	38.7	82.7	11.3	18.9	42.2
CCc1nc2c(C)cc(C)nc2n1Cc1ccc(-c2cc(-c3ccccc3F)ccc2-c2nn[nH]n2)cc1 [Example 19]	7.5	57.9	12.2	27.4	89.8	2.4	12.1	73.7
CCc1nc2c(C)cc(C)nc2n1Cc1ccc(-c2cc(-c3ccccc3OC)ccc2-c2nn[nH]n2)cc1 [Example 5]	14.5	30.9	15.1	23.8	76.2	16	12.1	22.9

Source: patent publication US12037324B2, “Biarylmethyl heterocycles” (Université de Montréal, priority 2016, dated 2024)
